# In patent publication US20240166603A1, “Method of Treating Cancer With Atpenin A5 Derviatives” (Texas Tech University System, priority 2018, published 2024):
# Like-named read-outs stand apart in the source and are kept apart here. Marks after values point to notes of the source that are not given here.
# Tests used:
# [1] = system: WPMY-1 prostate stromal cells; assay: Cytotoxicity, WPMY-1 prostate stromal cells; assay type: cell-based; settings: Homo sapiens
# [2] = biological target: T1, mitochondrial complex II (CII) (Rattus norvegicus, UniProt P21913+Q641Z9+Q6PCT8); assay: Complex II inhibition assay, isolated rat heart mitochondria; settings: for LLE (Ligand-Lipophilicity Efficiency): LLE = pIC50-ClogP; for CII IC50 expressed: conversion of the nM value; for CII inhibition activity: 100 nM where stated
# [3] = system: 22Rv1 prostate cancer cells; assay: Cytotoxicity MTS assay, 22Rv1; settings: for IC50: Homo sapiens, 22Rv1, 48 h, read-out: 22Rv1 IC50; for 22Rv1 IC50: MTS, 48 hours unless otherwise noted; for increase in efficacy relative to Enzalutamide, inhibition of cancer growth in vitro: cell line not given
# [4] = biological target: Complex I (NADH ubiquinone-oxidoreductase) (Mus musculus, UniProt P03888+Q91WD5+Q9DC70); assay: Complex I inhibition assay, mouse cardiac mitochondria; settings: for Selectivity Ratio (CII:CI): Table 3
# [5] = system: HEK293 cells; assay: Cytotoxicity MTS assay, HEK293; settings: for selectivity for prostate cancer cells over HEK293: 16c: DU-145 and 22Rv1, 16k: 22Rv1; for IC50: Homo sapiens, HEK293, 48 h, read-out: HEK293 IC50
# [6] = system: PC3 prostate cancer cells under hypoxia; assay: Cell death under hypoxia, microfluidic chip, Annexin V and Sytox Green; settings: for cell death: 10 μM, hypoxia
# [7] = Table 5, SDH1 and SDH2, percent relative to control
# [8] = biological target: bovine CII (Bos taurus, UniProt P35720+Q3T189+Q95123); settings: literature [27]; cited from earlier work
# [9] = biological target: T1, mitochondrial complex II (CII)
# [10] = system: DU-145 prostate cancer cells; assay: Cytotoxicity MTS assay, DU-145; settings: for IC50: Homo sapiens, DU-145, 48 h, read-out: DU-145 IC50
# [11] = system: 3T3 cells; assay: Cytotoxicity, 3T3 mouse embryonic fibroblast cells; assay type: cell-based; settings: NIH3T3
# [12] = system: 22Rv1 cells; assay: Metabolic parameters, Seahorse XF Extracellular Flux Analyzer; assay type: cell-based, human; settings: 48 hour incubation
# Method: Next, the inventors determined the effect of complex II inhibition by the developed inhibitors on mitochondrial metabolic processes. The effect of 16c on electron transport parameters of 22Rv1 cells after 48 hour incubation was studied using a Seahorse XF Extracellular Flux Analyzer.
# Assessment of Metabolic Parameters. Changes in oxygen consumption rate were measured using a XF24 Extracellular Flux Analyzer (Seahorse Bioscience, Billerica, MA). 22Rv1 cells were plated in XF24-well plates (40,000 cells/well) and allowed to adapt overnight. Treatments were performed with 16c at concentrations of 1, 10, 20, 30, 50 and 100 μg/mL and incubated for 48 hours. Mito Stress test was performed using oligomycin (10 μM), FCCP (5 μM) and Rotenone/Antimycin A (5 μM) based on the manufacturer's recommended protocol.
# [13] = system: LNCaP cells; assay: Potentiation of Enzalutamide in LNCaP cells (FIG. 9); assay type: cell-based
# [14] = system: PC3 prostate cancer cells; assay: Cytotoxicity MTS assay, PC3; settings: Homo sapiens, 48 h, read-out: PC3 IC50
# [15] = in vivo; settings: 1 mg/kg
# [16] = system: CII; settings: cited from earlier work
# [17] = read-out: CII IC50, rat heart CII
# [18] = read-out: CII IC50, rat heart mitochondria, mean value of four experiments
# T1 sequence (P21913 31-282): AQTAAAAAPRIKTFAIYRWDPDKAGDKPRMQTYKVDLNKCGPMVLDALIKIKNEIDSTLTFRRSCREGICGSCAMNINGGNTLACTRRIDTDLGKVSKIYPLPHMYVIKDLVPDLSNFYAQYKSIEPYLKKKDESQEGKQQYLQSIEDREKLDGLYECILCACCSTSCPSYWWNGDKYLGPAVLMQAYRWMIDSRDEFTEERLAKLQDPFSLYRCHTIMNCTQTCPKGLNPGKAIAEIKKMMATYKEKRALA
# T1 sequence (Q641Z9 30-169 limits assumed): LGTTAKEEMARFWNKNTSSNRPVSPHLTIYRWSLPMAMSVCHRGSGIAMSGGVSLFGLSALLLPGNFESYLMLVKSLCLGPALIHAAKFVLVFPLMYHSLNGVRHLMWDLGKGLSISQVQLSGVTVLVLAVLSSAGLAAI
# T1 sequence (Q6PCT8 57-159): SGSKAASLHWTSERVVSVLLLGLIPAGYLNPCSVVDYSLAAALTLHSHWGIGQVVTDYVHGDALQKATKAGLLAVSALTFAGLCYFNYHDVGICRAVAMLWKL
# T1 sequence (Q920L2 35-656 partner): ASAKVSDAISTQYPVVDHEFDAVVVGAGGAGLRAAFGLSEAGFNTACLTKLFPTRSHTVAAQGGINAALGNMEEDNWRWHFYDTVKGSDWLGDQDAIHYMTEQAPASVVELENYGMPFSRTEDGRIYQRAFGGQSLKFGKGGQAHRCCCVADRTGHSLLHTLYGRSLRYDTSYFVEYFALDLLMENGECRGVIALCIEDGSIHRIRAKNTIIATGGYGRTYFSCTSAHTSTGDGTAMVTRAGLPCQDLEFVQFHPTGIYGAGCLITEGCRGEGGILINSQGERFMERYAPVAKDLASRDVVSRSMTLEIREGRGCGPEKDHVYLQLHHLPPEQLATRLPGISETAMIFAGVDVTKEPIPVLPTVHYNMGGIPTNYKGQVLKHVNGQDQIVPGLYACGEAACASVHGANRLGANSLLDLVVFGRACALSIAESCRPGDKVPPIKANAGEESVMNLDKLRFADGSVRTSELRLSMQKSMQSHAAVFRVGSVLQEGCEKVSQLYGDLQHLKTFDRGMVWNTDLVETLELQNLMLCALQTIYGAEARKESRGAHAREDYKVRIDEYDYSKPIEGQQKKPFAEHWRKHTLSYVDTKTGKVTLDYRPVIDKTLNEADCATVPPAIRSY
# Sequence of bovine CII (Q3T189 29-280): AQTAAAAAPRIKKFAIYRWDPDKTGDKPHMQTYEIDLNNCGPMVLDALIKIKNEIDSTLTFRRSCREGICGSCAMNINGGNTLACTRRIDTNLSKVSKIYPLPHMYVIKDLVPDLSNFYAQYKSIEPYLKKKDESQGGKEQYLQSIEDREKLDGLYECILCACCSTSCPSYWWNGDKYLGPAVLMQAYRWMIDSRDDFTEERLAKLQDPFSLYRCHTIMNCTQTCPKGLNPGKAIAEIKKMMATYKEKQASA
# Sequence of bovine CII (P35720 30-169): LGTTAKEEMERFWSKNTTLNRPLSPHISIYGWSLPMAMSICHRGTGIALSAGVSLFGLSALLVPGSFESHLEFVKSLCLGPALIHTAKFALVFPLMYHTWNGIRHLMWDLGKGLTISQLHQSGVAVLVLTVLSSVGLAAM
# Sequence of bovine CII (Q95123 56-158): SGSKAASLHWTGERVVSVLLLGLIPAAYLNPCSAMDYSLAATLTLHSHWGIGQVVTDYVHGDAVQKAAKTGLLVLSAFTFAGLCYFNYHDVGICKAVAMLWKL
# Sequence of bovine CII (P31039 44-665 partner): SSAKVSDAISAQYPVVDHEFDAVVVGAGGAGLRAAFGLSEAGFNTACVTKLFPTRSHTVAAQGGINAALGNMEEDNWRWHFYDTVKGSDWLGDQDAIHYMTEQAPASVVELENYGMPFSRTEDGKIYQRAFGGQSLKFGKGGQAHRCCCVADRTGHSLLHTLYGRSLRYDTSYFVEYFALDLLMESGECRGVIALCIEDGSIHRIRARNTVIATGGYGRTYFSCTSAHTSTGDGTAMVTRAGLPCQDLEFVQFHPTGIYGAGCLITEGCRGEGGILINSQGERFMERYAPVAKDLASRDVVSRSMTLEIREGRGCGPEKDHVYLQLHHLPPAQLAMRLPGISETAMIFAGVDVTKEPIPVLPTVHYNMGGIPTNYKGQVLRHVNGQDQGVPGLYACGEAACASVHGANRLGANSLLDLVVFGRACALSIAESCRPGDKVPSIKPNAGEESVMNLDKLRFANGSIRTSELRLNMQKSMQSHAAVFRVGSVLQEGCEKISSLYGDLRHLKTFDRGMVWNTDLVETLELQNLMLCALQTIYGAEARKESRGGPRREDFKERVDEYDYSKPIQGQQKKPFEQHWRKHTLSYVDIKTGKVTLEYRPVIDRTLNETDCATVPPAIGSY
compound,measurement,setting,value
"CCCCCCCCCCCCC(=O)c1c(O)nc(OC)c(OC)c1O [Compound 16k, 1-(2,4-dihydroxy-5,6-dimethoxypyridin-3-yl)tridecan-1-one]",IC50,[1],10.7 µg/mL
same,LLE (Ligand-Lipophilicity Efficiency),[2],3.76
same,CII IC50 expressed,[2],1.21 ng/mL
same,IC50,[3],2 µg/mL
same,22Rv1 IC50,[3],2 µg/mL
same,"increase in efficacy relative to Enzalutamide, inhibition of cancer growth in vitro",[3],10 fold
same,IC50,[4],> 10 µM
same,Selectivity Ratio (CII:CI),[4],>3030
same,IC50,[4]; read-out: Complex I IC50,> 10 µM
same,selectivity for prostate cancer cells over HEK293,[5],17.5 fold
same,IC50,[5],35 µg/mL
"CCCCCCCCCCC(=O)c1c(O)nc(OC)c(OC)c1O [Compound 16j, 1-(2,4-dihydroxy-5,6-dimethoxypyridin-3-yl)undecan-1-one]",LLE (Ligand-Lipophilicity Efficiency),[2],4.32
same,IC50,[2]; [17],8.6 nM
"COc1nc(O)c(C(=O)c2ccco2)c(O)c1OC [Compound 16a, (2,4-dihydroxy-5,6-dimethoxypyridin-3-yl)(furan-2-yl)methanone]",inhibition of CII at 100 nM concentration,[2],0%^e
same,CII inhibition activity,[2],abrogates CII inhibition activity
"CCCCCC(O)c1c(O)nc(OC)c(OC)c1O (racemic) [Compound 18, (rac)-3-(1-hydroxyhexyl)-5,6-dimethoxypyridine-2,4-diol]",inhibition of CII at 100 nM concentration,[2],0%
same,CII inhibition activity,[2],no CII inhibition activity
same,cytotoxic effect under hypoxia,[6]; up to 10 μM,no cytotoxic effect
CCCCC(=O)c1c(O)nc(OC)c(OC)c1O [SDH1],value at 100 nM (Control 100%),[7],65.17%
same,value at 1 uM (Control 100%),[7],35.13%
"CCCCC(=O)c1c(O)nc(OC)c(OC)c1O [Compound 16b, 1-(2,4-dihydroxy-5,6-dimethoxypyridin-3-yl)pentan-1-one]",LLE (Ligand-Lipophilicity Efficiency),[2],5.37
same,IC50,[2]; [17],345 nM
same,IC50,[2]; [18],346 nM
same,IC50,[8],96 nM
"CCCCCC(=O)c1c(O)nc(OC)c(OC)c1O [Compound 16c, 1-(2,4-dihydroxy-5,6-dimethoxypyridin-3-yl)hexan-1-one]",LLE (Ligand-Lipophilicity Efficiency),[9],5.62
same,IC50,[10],12 µg/mL
same,IC50,[1],18.4 µg/mL
same,CII IC50 expressed,[2],17.23 ng/mL
same,cell death,[6],20%
same,IC50,[11],31.8 µg/mL
same,ATP production,[12],inhibition of ATP production
same,basal respiration,[12],reducing basal respiration
same,maximal respiration,[12],reduction of maximal respiration
same,oxygen consumption rate,[12],substantially reduced in a dose-dependent manner
same,IC50,[3],11 µg/mL
same,22Rv1 IC50,[3],11 µg/mL
same,"increase in efficacy relative to Enzalutamide, inhibition of cancer growth in vitro",[3],10 fold
same,effect on Enzalutamide (ENZA) in LNCaP cells,[13],potentiates Enzalutamide
same,IC50,[14],38 µg/mL
same,Selectivity Ratio (CII:CI),[4],>156
same,AUC,[15],19.6 ng·h/mL
same,Vd,[15],89.5 L/kg
same,half-life,[15],103 min
same,AUC(0-inf),"[15]; AUCinf,obs",8.3 ng·h/mL
same,AUC(0-inf),"[15]; AUCinf,pred",8.32 ng·h/mL
same,Tmax,[15],22.8 min
same,"AUCinf,obs",[15]; female,23.61 ng·h/mL
same,"AUCinf,pred",[15]; female,23.63 ng·h/mL
same,t1/2λz,[15]; female,1.73 h
same,AUC(0-inf),"[15]; female, AUCinf,obs",36 ng·h/mL
same,AUC(0-inf),"[15]; female, AUCinf,pred",36 ng·h/mL
same,Cmax,[15]; female,140 ng/mL
same,Tmax,[15]; female,15 min
same,Vssobs,[15]; male,134647.72 mL/kg
same,Vsspred,[15]; male,129169.94 mL/kg
same,t1/2λz,[15]; male,1.71 h
same,AUC(0-inf),"[15]; male, AUCinf,obs",10.7 ng·h/mL
same,AUC(0-inf),"[15]; male, AUCinf,pred",10.6 ng·h/mL
same,Cmax,[15]; male,23.9 ng/mL
same,Tmax,[15]; male,30 min
same,selectivity for prostate cancer cells over HEK293,[5],7.4 fold
same,IC50,[5],81 µg/mL
"CCCCCC(O)c1c(OCOC)nc(OC)c(OC)c1OCOC (stereo not shown) [Compound 17, 1-(5,6-dimethoxy-2,4-bis(methoxymethoxy)pyridin-3-yl)hexan-1-ol]",inhibition of CII at 100 nM concentration,[2],0%
"COc1[nH]c(=O)c(C(=O)[C@@H](C)C[C@H](C)[C@@H](Cl)CCl)c(O)c1OC [Atpenin A5, atpenin A5]",IC50,"[16]; literature [20, 23]",0.0036 to 0.01 µM
same,LLE (Ligand-Lipophilicity Efficiency),[2],5.36
same,IC50,[2]; [17],3.3 nM
same,IC50,[2]; [18],3.3 nM
same,IC50,"[2]; read-out: Complex II IC50, Table 3",3.3 nM
same,Selectivity Ratio (CII:CI),[4],>3030
same,IC50,[4]; read-out: Complex I IC50,> 10 µM
"CCCCCCC(=O)c1c(O)nc(OC)c(OC)c1O [Compound 16f, 1-(2,4-dihydroxy-5,6-dimethoxypyridin-3-yl)heptan-1-one]",LLE (Ligand-Lipophilicity Efficiency),[2],4.57
same,IC50,[2]; [18],282 nM
same,IC50,[8],20 nM
"COc1cc([C@@H]2c3cc4c(cc3[C@@H](O[C@@H]3O[C@@H]5CO[C@@H](C)O[C@H]5[C@H](O)[C@H]3O)[C@H]3COC(=O)[C@H]23)OCO4)cc(OC)c1O [Etoposide, etoposide, reference compound]",cell death,[6],7%
COc1nc(O)c(C(=O)CCCC[P+](c2ccccc2)(c2ccccc2)c2ccccc2)c(O)c1OC [SDH2],value at 100 nM (Control 100%),[7],61.64%
same,value at 1 uM (Control 100%),[7],43.53%
"Cc1c(C)c2c(c(C)c1OC(=O)CCC(=O)O)CC[C@@](C)(CCC[C@H](C)CCC[C@H](C)CCCC(C)C)O2 [α-TOS, α-Tocopheryl succinate]",IC50,[16]; literature,42 µM
"CCCCCCCC(=O)c1c(O)nc(OC)c(OC)c1O [Compound 16g, 1-(2,4-dihydroxy-5,6-dimethoxypyridin-3-yl)octan-1-one]",LLE (Ligand-Lipophilicity Efficiency),[2],4.89
same,IC50,[2]; [18],49.1 nM
"O=C(CC(=O)C(F)(F)F)c1cccs1 [TFFA, Thenoyltrifluoroacetone]",IC50,[16]; literature,30 µM
"CCCCCC(O)c1cnc(OC)c(OC)c1O (racemic) [Compound 19, (rac)-5-(1-hydroxyhexyl)-2,3-dimethoxypyridin-4-ol]",inhibition of CII at 100 nM concentration,[2],0%
same,CII inhibition activity,[2],inactive compound
"CCCCCCCCC(=O)c1c(O)nc(OC)c(OC)c1O [Compound 16h, 1-(2,4-dihydroxy-5,6-dimethoxypyridin-3-yl)nonan-1-one]",LLE (Ligand-Lipophilicity Efficiency),[2],4.93
same,IC50,[2]; [18],15.7 nM
"COc1nc(O)c(C(=O)CCCCO)c(O)c1OC [Compound 16e, 1-(2,4-dihydroxy-5,6-dimethoxypyridin-3-yl)-5-hydroxypentan-1-one]",LLE (Ligand-Lipophilicity Efficiency),[2],6.90
same,IC50,[2]; [18],3730 nM
"CC1=NS(=O)(=O)c2cc(Cl)ccc2N1 [Diazoxide, diazoxide, reference compound]",IC50,[16]; literature,32 µM
same,LLE (Ligand-Lipophilicity Efficiency),[2],1.85
O=C(O)CC(=O)O [Malonate],IC50,[16]; literature,40 µM
"COc1nc(O)c(C(=O)CCCCOCc2ccccc2)c(O)c1OC [Compound 16d, 5-(benzyloxy)-1-(2,4-dihydroxy-5,6-dimethoxypyridin-3-yl)pentan-1-one]",LLE (Ligand-Lipophilicity Efficiency),[2],3.41
same,IC50,[2]; [18],281 nM
"CCCCCC(=O)c1cnc(OC)c(OC)c1O [Compound 20, 1-(4-hydroxy-5,6-dimethoxypyridin-3-yl)hexan-1-one]",inhibition of CII at 100 nM concentration,[2],0%
same,CII inhibition activity,[2],no activity at 100 nM concentration
"CCCCCC(OC)c1cnc(OC)c(OC)c1O (stereo not shown) [Compound 24, 2,3-dimethoxy-5-(1-methoxyhexyl)pyridin-4-ol]",IC50,[10],> 30 µg/mL
same,growth inhibition of DU-145 cells,[10]; up to 30 μg/mL,no growth inhibition effect
same,inhibition of CII at 100 nM concentration,[2],0%
same,CII inhibition activity,[2],no activity to inhibit CII at 100 nM
